# Results as given in PubChem BioAssay (NCI).
#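 Compound exposure: 48 hours, 5 concentrations, 96-well plates. At the TGI there is no net growth.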
# Assays:
# Test in all cases: inhibition of tumour cell growth, NCI panel, 48 h
# [1] = test system: COLO 205 colon
# [2] = test system: IGROV1 ovarian
# [3] = test system: A498 renal
# [4] = test system: CAKI-1 renal
# [5] = test system: SF-539 CNS
# [6] = test system: OVCAR-5 ovarian
# [7] = test system: SK-OV-3 ovarian
# [8] = test system: OVCAR-8 ovarian
# [9] = test system: SK-MEL-5 melanoma
# [10] = test system: 786-0 renal
# [11] = test system: HCC-2998 colon
# [12] = test system: SN12C renal
# [13] = test system: SK-MEL-2 melanoma
# [14] = test system: OVCAR-4 ovarian
# [15] = test system: U251 CNS
# [16] = test system: HOP-92 NSCLC
# [17] = test system: NCI-H23 lung
# [18] = test system: MCF7 breast
# [19] = test system: SR leukemia
# [20] = test system: UO-31 renal
# [21] = test system: PC-3 prostate
# [22] = test system: LOX IMVI melanoma
# [23] = test system: HCT-116 colon
# [24] = test system: A549 NSCLC
# [25] = test system: MDA-N
# [26] = test system: MOLT-4 leukemia
# [27] = test system: HS 578T breast
# [28] = test system: NCI-H522 lung
# [29] = test system: HT29 colon
# [30] = test system: SK-MEL-28 melanoma
# [31] = test system: RXF 393 renal
# [32] = test system: HCT-15 colon
# [33] = test system: SF-295 CNS
# [34] = test system: NCI-H460 lung
# [35] = test system: UACC-257 melanoma
# [36] = test system: CCRF-CEM leukemia
# [37] = test system: UACC-62 melanoma
# [38] = test system: NCI/ADR-RES ovarian
# [39] = test system: HOP-62 NSCLC
# [40] = test system: SNB-19 CNS
# [41] = test system: KM12 colon
# [42] = test system: BT-549 breast
# [43] = test system: MALME-3M melanoma
# [44] = test system: RPMI-8226 leukemia
# [45] = test system: HL-60(TB) leukemia
# [46] = test system: MDA-MB-231 breast
# [47] = test system: NCI-H226 lung
# [48] = test system: SNB-75 CNS
# [49] = test system: OVCAR-3 ovarian
# [50] = test system: K-562 leukemia
# [51] = test system: M14 melanoma
# [52] = test system: SW-620 colon
# [53] = test system: T-47D breast
# [54] = test system: DU-145 prostate
# [55] = test system: ACHN renal
# [56] = test system: MDA-MB-435
# [57] = test system: TK-10 renal
# [58] = test system: EKVX NSCLC
# [59] = test system: SF-268 CNS
smiles,measurement,setting,value
C=C1C(=O)O[C@H]2[C@H]1[C@H](OC(=O)/C(C)=C\C)C[C@]1(CO1)[C@@H]1[C@H](OC(C)=O)C=C(C)[C@]21O,TGI,[1],19.4 µM
same,TGI,[2],38.8 µM
same,TGI,[3],> 100 µM
same,TGI,[4],36.8 µM
same,TGI,[5],> 93.9 µM
same,TGI,[6],> 59.1 µM
same,TGI,[7],> 100 µM
same,TGI,[8],> 100 µM
same,TGI,[9],37.2 µM
same,TGI,[10],23.5 µM
same,TGI,[11],35.5 µM
same,TGI,[12],30.2 µM
same,TGI,[13],> 58.3 µM
same,TGI,[14],> 100 µM
same,TGI,[15],52 µM
same,TGI,[16],30.3 µM
same,TGI,[17],53.2 µM
same,TGI,[18],29.1 µM
same,TGI,[19],28.5 µM
same,TGI,[20],29.4 µM
same,TGI,[21],> 58.8 µM
same,TGI,[22],29 µM
same,TGI,[23],20.3 µM
same,TGI,[24],> 100 µM
same,TGI,[25],34.8 µM
same,TGI,[26],25.6 µM
same,TGI,[27],> 100 µM
same,TGI,[28],16.8 µM
same,TGI,[29],30.4 µM
same,TGI,[30],30.6 µM
same,TGI,[31],25.6 µM
same,TGI,[32],33.5 µM
same,TGI,[33],> 100 µM
same,TGI,[34],> 89.8 µM
same,TGI,[35],39.2 µM
same,TGI,[36],15.6 µM
same,TGI,[37],32.2 µM
same,TGI,[38],57.4 µM
same,TGI,[39],> 100 µM
same,TGI,[40],> 100 µM
same,TGI,[41],41.4 µM
same,TGI,[42],24.4 µM
same,TGI,[43],35.3 µM
same,TGI,[44],15.2 µM
same,TGI,[45],12.9 µM
same,TGI,[46],39.5 µM
same,TGI,[47],> 61.2 µM
same,TGI,[48],> 100 µM
same,TGI,[49],32.1 µM
same,TGI,[50],11.8 µM
same,TGI,[51],54.9 µM
same,TGI,[52],27.9 µM
same,TGI,[53],36.5 µM
same,TGI,[54],29 µM
same,TGI,[55],24.5 µM
same,TGI,[56],42.4 µM
same,TGI,[57],23.1 µM
same,TGI,[58],33.8 µM
same,TGI,[59],45.5 µM
